# “And” between values parts separate entries of the source, which are not always exact repeats. Equal entries are not always repeated.
# Assays:
# STING [1] = molecular target: T1, STING (Homo sapiens, UniProt Q86WV6); assay: Western Blot analysis of inhibition of STING activation in HFF-1 cells; format: cell-based; set-up: host or cells: HFF-1 human foreskin fibroblasts; settings: agonist only (-): 300 nM diABZI c3 or 8 µg/mL cGAMP
# Experimental: To assess whether S1 STING ligands inhibit STING activation, primary human skin fibroblasts (Figure 5) or HFF-1 cells (Figure 6) were treated with various compounds which comprise only an S1 ligand domain and a Linker domain before undergoing Western Blot analysis as described below.
# The cells were lysed and analysed on WB. […] The WB membrane was probed for p-STING, STING, p-IRF3, p-TBK1, and Vinculin.
# STING [2] = molecular target: T1, STING; assay: Western Blot analysis of STING phosphorylation in human fibroblast cells (STING agonism); format: cell-based; set-up: host or cells: HFF-1 human foreskin fibroblasts; settings: control, 300nM diABZI C3 alone
# Experimental: Human fibroblast were treated with a titration of E22, E9, E14 and E16 (7.2µM-3.6nM) for 24h prior to cell lysis and subsequently total STING, pSTING and Vinculin were assessed by western blot using rabbit anti-STING (1:1000), anti-pSTING (1:1000), anti-Vinculin (1:1000) and 2nd anti-rabbit-HRP (1:10.000) or anti-mouse-HRP (1:7500). Proteins were visualized using ImageQuant800. Control cells included untreated cells and cells treated with 300nM diABZI C3.
# STING [3] = molecular target: T1, STING; assay: Inhibition of STING-agonist-induced IFN-β and CXCL10 release by Compounds A9 and A11; format: cell-based; set-up: host or cells: HFF-1 human foreskin fibroblasts
# Experimental: HFF-1 cells were also assessed for inhibition of STING-agonist-induced IFN-β and CXCL10 release in cells treated with Compounds A9 and A11. […] In contrast, pre-treating cells for 1 to 2 hours prior to diABZI c3, simultaneous treatment with A9 and diABZI c3, or pre-treating cells for 15 minutes with diABZI c3 followed by A9 treatment led to a decrease in the IFN media concentration to ~100 U/mL. […] In contrast, cells pre-treated for 1 to 2 hours prior to diABZI c3, simultaneous treatment with A9 and diABZI c3, or pre-treating cells for 15 minutes with diABZI c3 followed by A9 treatment led to a decrease in the CXCL10 media concentration to […] (Figure 9B, unfiled bars).
# In contrast, pre-treating cells for 1 to 2 hours prior to diABZI c3, simultaneous treatment with A11 and diABZI c3, or pre-treating cells for 15 minutes with diABZI c3 followed by A11 treatment led to a decrease in the IFN media concentration to -10 - 20 U/mL. […] In contrast, cells pre-treated for 1 to 2 hours prior to diABZI c3, simultaneous treatment with A11 and diABZI c3, or pre-treating cells for 15 minutes with diABZI c3 followed by A11 treatment led to a decrease in the CXCL10 media concentration to -10 - 20 pg/mL (Figure 9B; filled bars).
# STING [4] = molecular target: T2, STING (Mus musculus, UniProt Q3TBT3); assay: IFN-β secretion from mouse RAW264.7 cells treated with diABZI; format: cell-based; set-up: endogenous in cells; host or cells: RAW264.7 mouse cells; settings: 1.8 µM diABZI c3 only
# T2 sequence (Q3TBT3 1-378): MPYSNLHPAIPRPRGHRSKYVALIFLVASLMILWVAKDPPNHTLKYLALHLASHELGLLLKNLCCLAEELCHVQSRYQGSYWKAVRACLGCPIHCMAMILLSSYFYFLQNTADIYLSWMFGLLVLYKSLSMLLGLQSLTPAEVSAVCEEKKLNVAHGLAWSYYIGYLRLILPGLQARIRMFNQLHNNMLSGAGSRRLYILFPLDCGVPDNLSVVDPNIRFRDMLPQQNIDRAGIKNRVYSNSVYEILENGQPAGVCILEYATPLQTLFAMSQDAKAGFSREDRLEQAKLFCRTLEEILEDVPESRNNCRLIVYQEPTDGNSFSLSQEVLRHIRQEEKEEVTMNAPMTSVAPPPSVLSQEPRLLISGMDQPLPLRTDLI
# Experimental: As expected, RAW264.7 cells treated with 1.8 µM diABZI c3 increased IFN-β secretion, resulting in a media concentration of around 1000 pg/mL. In contrast, cells treated with 1.8 µM diABZI c3 and 0.05 µM Example compounds 14, 16 or 24 reduced this expression to approximately 500 pg/mL.
# STING [5] = molecular target: T1, STING; assay: Western Blot analysis for STING degradation in H596 cells; format: cell-based; settings: 24h; reference protein beta-actin
# Experimental: (§1) For cell lysing for Western Blot analysis cell culture plates were brought to ice, supernatant was removed by aspiration and cells washed 2x in ice-cold DPBS. Cells were lysed in 65 µL of RIPA buffer supplemented with cOmplete ULTRA Tablets protease inhibitor cocktail, PIERCE Phosphatase inhibitor mini tablet, Benzonase and 10mM NaF for 20 min on ice. Lysates were collected, cleared by centrifugation (13000xg for 10 min at 4°C). Samples were either analysed directly or stored at -80°C until analysis.
# (§2) For Western Blotting, total protein concentration in each lysate was determined using PIERCE Gold BCA Assay kit according to manufactures protocol. 6 µg of total protein was mixed with 2x Laemmli buffer containing DTT, boiled for 5 min at 95°C, cooled on ice and loaded into each well of a 4-20% Criterion TGX gel. Proteins were separated by electrophoresis, by running for 1h at 150V. After separation proteins were blotted onto a PVDF membrane by semi-dry transfer using Trans-Blot turbo system at pre-defined BioRad MIDI protocol; 25V, 1A (fixed) for 30 min. Membranes were blocked for 1h in 5% skim milk in TBS-T20 on a rocker at room temperature followed by washing and exposure to primary antibodies against human STING 1:1000 (Cell Signalling, #13647) or loading controls Vinculin 1:1000 (Cell Signalling, #13901) or beta-Actin 1:10000 (Sigma, A5441) all diluted in 5% BSA in TBS-T20. Membranes were probed over night at 4°C on a rocker. Membranes were washed 3x in TBS-T20 followed by exposure to secondary HRP-conjugated anti-rabbit antibody or HRP-conjugated anti-mouse antibody diluted 1:10000 in 5% skim milk in TBS-T20 as appropriate. Membranes were incubated for 1h at room temperature on a rocker, then washed 3x in TBS-T20.
# (§3) For generating DC50 values, the intensity of individual bands was measured using imaged and expression levels were calculated as a ratio of STING intensities vs. Reference protein intensities and normalized to DMSO control. The normalized ratios were plotted on a XY curve in GraphPad Prism where DC50 was estimated using a 4-parameter non-linear regression fitting curve.
# To assess STING degradation in H596 cells (ATCC, HTB-178) cells were seeded at a density of 100.000 cells/well in 24-well Nunclon Delta surface treated culture plate in RPMI-1640 growth medium (supplemented with 10% FBS, 1% Pen-strep). Cells were incubated over-night at 37°C 5% CO2 to allow adhesion. Next day growth medium was renewed and a 5x concentration of test compounds (2.5% DMSO) diluted in growth medium were added to the appropriate well. Final DMSO concentration was 0.5%. Cell culture plates were returned to the incubator for additional 24h. Final test compound concentrations were 0.22 µM, 0.67 µM, 2 µM and 6 µM.
# For cell lysis, western blotting and data analysis, the methods described above for HFF-1 cells were applied.
# STING [6] = molecular target: T1, STING; assay: Inhibition of STING-agonist-induced IFN-β release in H596 cells (H596 STING inhibition assay); format: cell-based; settings: 24h with compound, then 0.3 µM GSK STING agonist, 6h; ELISA
# Experimental: Cell supernatants were analysed for IFN-β release using DuoSet human IFN-β ELISA (R&D systems, DY-814) following manufactures protocol except using 96-well, half-volume plates from Corning and subsequently use half volume for all steps throughout the protocol. In brief, plates were coated o/n with a 130x dilution of capturing antibody in PBS. Wells were washed 3x with PBS-T20 followed by blocking with 1% BSA diluted in TBS-T20 for 1h. Wells were washed 3x with PBS-T20 and standards (n=2) and samples (n=3) were added to the plate and incubated for 2h at rt. Wells were washed 3x with PBS-T20 and detection antibody diluted 1:60 in 1% BSA in PBS was added to each well and incubated for 2h at rt. Plates were washed 3x with PBS-T20 and Streptavidin-HRP diluted 1:40 in 1% BSA in PBS was added pr well and incubated for 30 min at rt. The wells were washed 4x with PBS-T20 and TMB One Substrate (Promega) was added and incubated for 5-10 min in the dark. When fully developed, 1 mmol/L Sulfuric acid was added to stop the reaction. Signals were measured using BioTek Synergy H1 plate reader at 450nm and 570nm (reference).
# Raw data values were quantified based on the standard curve using blank subtracted Δ450nm-570nm values generated using the Gen5 software connected to the plate reader. Concentrations were plotted into GraphPad Prism to calculate EC50 values using a 4-parameter non-linear regression fitting curve, bottom constrains set for >0.
# To determine cellular effects of test compounds, we assessed inhibition of STING-agonist-induced IFN-β release in H596 cells (ATCC, HTB-178). Cells were seeded at a density of 25.000 cells/well in 96-well Nunclon Delta surface treated culture plate in RPMI-1640 growth medium (supplemented with 10% FBS, 1% Pen-strep). Cells were incubated over-night at 37°C 5% CO2 to allow adhesion. Next morning growth medium was renewed and a 10x concentration, 3-step dilution series of test compounds diluted in growth medium (5% DMSO) were added to the appropriate well. Final DMSO concentration was 0.5%. Cells were further incubated for 24h followed by incubation with a 10x concentration of GSK STING agonist (CAS number: 2138299-34-8), final concentration was 0.3 µM. Cells culture plates were further incubated, and supernatants were harvested after 6h and immediately stored at -20°C until determination of IFN-β release.
# For ELISA and data analysis, the methods described above for HFF-1 cells were applied.
# [7] = molecular target: C-terminal domain (CTD) of human STING (Homo sapiens, UniProt Q86WV6); assay: STING binding FP assay III; set-up: recombinant human STING protein (155-379); settings: 10 nM STING (FP assay III according to the text); read-out: STING binding FP assay II, IC50
# Outline: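 FP competition assay using 10 nM recombinant human STING (155-379) and 4 nM fluorescein-labelled STING ligand in 150 mM NaCl, 50 mM HEPES pH 7.5, 1 mM DTT with Tween-20. Plates were incubated 20 min at room temperature and read at Ex 485/Em 528 nm. IC50 values came from four-parameter fits.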
# STING [8] = molecular target: T1, STING; assay: Western Blot analysis for STING degradation (DC50) in HFF-1 cells; format: cell-based; set-up: host or cells: HFF-1 human foreskin fibroblasts; settings: 24h; reference protein vinculin
# Experimental: To assess STING degradation in human foreskin fibroblasts HFF-1 cells (ATCC, SCRC-1041) cells were seeded at a density of 60.000 cells/well in 24-well Nunclon Delta surface treated culture plate in DMEM growth medium (supplemented with 10% FBS, 1% Pen-strep). Cells were incubated over-night at 37°C 5% CO2 to allow adhesion. Next day growth medium was renewed and a 5x concentration of test compounds (2.5% DMSO) diluted in growth medium were added to the appropriate well. The final DMSO concentration were 0.5%. Cell culture plates were returned to the incubator for additional 24h.
# as §1, §2, §3
# Sequence of C-terminal domain (CTD) of human STING (Q86WV6 155-379): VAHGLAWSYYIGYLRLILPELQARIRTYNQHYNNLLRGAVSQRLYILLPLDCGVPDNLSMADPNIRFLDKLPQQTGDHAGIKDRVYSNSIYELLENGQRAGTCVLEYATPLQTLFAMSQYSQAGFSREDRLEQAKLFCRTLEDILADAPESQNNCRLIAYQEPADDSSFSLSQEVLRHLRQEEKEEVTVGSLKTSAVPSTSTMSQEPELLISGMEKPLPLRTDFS
# T1 sequence (Q86WV6 whole entry, the tested form may be a part): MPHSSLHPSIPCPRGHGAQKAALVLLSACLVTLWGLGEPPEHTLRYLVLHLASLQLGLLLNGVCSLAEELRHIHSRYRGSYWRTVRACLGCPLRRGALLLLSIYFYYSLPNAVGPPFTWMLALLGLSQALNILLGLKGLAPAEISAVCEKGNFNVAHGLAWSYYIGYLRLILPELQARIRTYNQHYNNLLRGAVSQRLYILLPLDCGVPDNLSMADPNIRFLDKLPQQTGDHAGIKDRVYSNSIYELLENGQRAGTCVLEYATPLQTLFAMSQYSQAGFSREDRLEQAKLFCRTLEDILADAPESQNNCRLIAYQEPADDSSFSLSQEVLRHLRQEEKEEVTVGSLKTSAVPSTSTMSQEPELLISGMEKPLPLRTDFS
STING phosphorylation (pSTING) (STING [2]),CXCL10 media concentration (STING [3]; cells treated with diABZI c3 alone (0.3 µM)),"IFN media concentration (STING [3]; cells treated with only diABZI c3 (0.3 µM), tris(hydrochloride))",IFN-β media concentration (STING [4]),DC50 (STING [5]) [nM],EC50 (STING [6]) [nM],IC50 [7] [nM],Compound,"phosphorylation of STING, IRF3 and TBK1 (STING [1])",DC50 (STING [8]) [nM]
STING was phosphorylated,~ 60 pg/mL,~ 200 U/mL and ~ 100 U/mL,around 1000 pg/mL,–,–,–,"CCn1nc(C)cc1C(=O)Nc1nc2cc(C(N)=O)cc(OC)c2n1C/C=C/Cn1c(NC(=O)c2cc(C)nn2CC)nc2cc(C(N)=O)cc(OCCCN3CCOCC3)c21.Cl.Cl.Cl [diABZI c3, (E)-1-(4-(5-carbamoyl-2-(1-ethyl-3-methyl-1H-pyrazole-5-carboxamido)-7-(3-morpholinopropoxy)-1H-benzo[d]imidazol-1-yl)but-2-en-1-yl)-2-(1-ethyl-3-methyl-1H-pyrazole-5-carboxamido)-7-methoxy-1H-benzimidazole-5-carboxamide tris(hydrochloride), reference compound]",STING was phosphorylated and activated as were the downstream STING effectors IRF3 and TBK1,–
–,–,–,–,< 200,< 200,2.7,CCn1nc(C)cc1C(=O)N=c1n(C)c2cc(C(N)=O)ccc2n1CCC(CCn1c(=NC(=O)c2cc(C)nn2CC)n(C)c2cc(C(N)=O)ccc21)OCC(=O)NCCOCCOCCOCCOCCC(=O)N1CCN(C(=O)CCOCCC(=O)NCCCCOc2cc(-c3scnc3C)ccc2CNC(=O)[C@@H]2C[C@@H](O)CN2C(=O)[C@@H](NC(=O)C2(F)CC2)C(C)(C)C)CC1 (some centres unmarked) [Example 20],–,–
–,–,–,–,< 200,< 200,7.1,CCn1nc(C)cc1C(=O)N=c1n(C)c2cc(C(N)=O)ccc2n1CCC(CCn1c(=NC(=O)c2cc(C)nn2CC)n(C)c2cc(C(N)=O)ccc21)OCC(=O)NCCOCCOCCOCCOCCC(=O)N1CCN(C(=O)CCC(=O)NCCCCOc2cc(-c3scnc3C)ccc2CNC(=O)[C@@H]2C[C@@H](O)CN2C(=O)[C@@H](NC(=O)C2(F)CC2)C(C)(C)C)CC1 (some centres unmarked) [Example 19],–,–

Compound,STING phosphorylation (pSTING) (STING [2]),CXCL10 media concentration (STING [3]; cells treated with diABZI c3 alone (0.3 µM)),"IFN media concentration (STING [3]; cells treated with only diABZI c3 (0.3 µM), tris(hydrochloride))",IFN-β media concentration (STING [4]),DC50 (STING [5]) [nM],EC50 (STING [6]) [nM],IC50 [7] [nM],"phosphorylation of STING, IRF3 and TBK1 (STING [1])",DC50 (STING [8]) [nM]
CCn1nc(C)cc1C(=O)N=c1n(C)c2cc(C(N)=O)ccc2n1CCC(CCn1c(=NC(=O)c2cc(C)nn2CC)n(C)c2cc(C(N)=O)ccc21)OCC(=O)NCCOCCOCCOCCOCCC(=O)NCCCCC(=O)N[C@H]1C[C@@H](C(=O)N[C@@H]2CCCc3ccccc32)N(C(=O)[C@@H](NC(=O)[C@H](C)NC)C2CCCCC2)C1 (some centres unmarked) [Example 10],–,–,–,–,–,200 to 1000,4.5,–,< 200
